{"source": "patent EP4631940A1", "about": "“COMPOUND TARGETING PAN-KRAS PROTEIN DEGRADATION AGENT AND USE THEREOF” (Betta Pharmaceuticals Co., Ltd., priority 2022, dated 2024)", "key": {"AGS": {"test_system": "AGS", "experiment": "Cell proliferation experiment (CellTiter-Glo)", "assay_type": "cell-based", "conditions": "read-out: IC50(nM) AGS"}, "SW620": {"test_system": "SW620", "experiment": "Cell proliferation experiment (CellTiter-Glo)", "assay_type": "cell-based", "conditions": "read-out: IC50(nM) SW620"}, "KRAS G12D": {"molecular_target": "KRAS G12D (Homo sapiens, UniProt P01116, G12D)", "sequence (P01116 1-188 isoform P01116-2 G12D)": "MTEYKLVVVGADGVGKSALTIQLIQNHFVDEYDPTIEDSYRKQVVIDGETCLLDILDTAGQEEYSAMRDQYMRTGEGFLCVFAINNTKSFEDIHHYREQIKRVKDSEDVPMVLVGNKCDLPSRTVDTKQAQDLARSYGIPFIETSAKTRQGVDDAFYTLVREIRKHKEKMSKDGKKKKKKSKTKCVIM"}, "[1]": {"conditions": "AGS, KRAS mutation type G12D, 96 h incubation"}, "[2]": {"conditions": "SW620, KRAS mutation type G12V, 96 h incubation"}}, "note": "Like-named read-outs stand apart in the source and are kept apart here.", "data": [{"compound": "CCc1c(F)ccc2cc(O)cc(-c3ncc4c(N5CCC[C@@](C)(O)C5)nc(OCC5(CN6CCC(OCc7cnc(-c8cn([C@H](C(=O)N9C[C@H](O)C[C@H]9C(=O)N[C@@H](C)c9ccc(-c%10scnc%10C)cc9)C(C)C)nn8)cn7)CC6)CC5)nc4c3F)c12", "note": "[Compound 198]", "values": [{"measurement": "IC50", "setting": "AGS; [1]", "result": 6.9, "unit": "nM"}, {"measurement": "IC50", "setting": "SW620; [2]", "result": 21, "unit": "nM"}]}, {"compound": "(2S,4R)-1-((S)-2-(4-(5-(2-(4-((1-((7-(8-ethyl-7-fluoro-3-hydroxynaphthalen-1-yl)-8-fluoro-4-((R )-3-hydroxy-3-methylpiperidin-1-yl)pyrido[4,3-d]pyrimidin-2-yl)oxy)methyl)cyclopropyl)methy l)piperazin-1-yl)-2-oxyethyl)pyrazin-2-yl)-1H-1,2,3-triazol-1-yl)-3-methylbutanoyl)-4-hydroxy-N-((S)-1-(4-(4-methylthiazol-5-yl)phenyl)ethyl)pyrrolidine-2-carboxamide [Compound 174]", "values": [{"measurement": "IC50", "setting": "AGS; [1]", "result": 8, "unit": "nM"}, {"measurement": "IC50", "setting": "SW620; [2]", "result": 59, "unit": "nM"}]}, {"compound": "CCc1c(F)ccc2cccc(-c3ncc4c(N5CCC[C@@](C)(O)C5)nc(OCC5(CN6CCC(Oc7cnc(-c8cn([C@H](C(=O)N9C[C@H](O)C[C@H]9C(=O)N[C@@H](C)c9ccc(-c%10scnc%10C)cc9)C(C)C)nn8)cn7)CC6)CC5)nc4c3F)c12", "note": "[Compound 201]", "values": [{"measurement": "IC50", "setting": "AGS; [1]", "result": 13, "unit": "nM"}, {"measurement": "IC50", "setting": "SW620; [2]", "result": 46, "unit": "nM"}]}, {"compound": "(2S,4R)-1-((S)-2-(4-(5-(2-(4-((1-(((7-(8-ethyl-7-fluoro-3-hydroxynaphthalen-1-yl)-8-fluoro-4-(( R)-3-hydroxy-3-methylpiperidin-1-yl)pyrido[4,3-d]pyrimidin-2-yl)oxy)methyl)cyclopropyl)meth yl)piperazin-1-yl)ethyl)pyrazin-2-yl)-1H-1,2,3-triazol-1-yl)-3-methylbutanoyl)-4-hydroxy-N-((S )-1-(4-(4-methylthiazol-5-yl)phenyl)ethyl)pyrrolidine-2-carboxamide [Compound 191]", "values": [{"measurement": "IC50", "setting": "AGS", "result": 3.1, "unit": "nM"}, {"measurement": "IC50", "setting": "SW620", "result": 12, "unit": "nM"}]}, {"compound": "CCc1c(F)ccc2cc(O)cc(-c3ncc4c(N5CCC[C@@](C)(O)C5)nc(OCC5(CN6CCC(Oc7cnc(-c8cn([C@H](C(=O)N9C[C@H](O)C[C@H]9C(=O)N[C@@H](CC(=O)NC)c9ccc(-c%10scnc%10C)cc9)C(C)C)nn8)cn7)CC6)CC5)nc4c3F)c12", "note": "[Compound 190, (2S,4R)-1-((S)-2-(4-(5-(1-((((7-(8-ethyl-7-fluoro-3-hydroxynaphthalen-1-yl)-8-fluoro-4-(((R)-3-hydroxy-3-methylpiperidin-1-yl)pyrido[4,3-d]pyrimidin-2-yl)oxy)methyl)cyclopropyl)methyl)piperidin-4-yl)oxy)-2-ylpyrazin-1H-1,2,3-triazol-1-yl)-3-methylbutanoyl)-4-hydroxy-N-((S)-3-(methylamino)-1-(4-(4-methylthiazol-5-yl)phenyl)-3-oxopropyl)pyrrolidine-2-carboxamide]", "values": [{"measurement": "IC50", "setting": "AGS; [1]", "result": 11, "unit": "nM"}, {"measurement": "IC50", "setting": "SW620; [2]", "result": 38, "unit": "nM"}]}, {"compound": "(2S,4R)-1-((S)-2-(4-(5-(3-(1-(((7-(8-ethyl-7-fluoro-3-hydroxynaphthalen-1-yl)-8-fluoro-4-((R)-3 -hydroxy-3-methylpiperidin-1-yl)pyrido[4,3-d]pyrimidin-2-yl)-3-methylbutanoyl)-4-hydroxy-N-((S)-1-(4-(4-methylthiazol-5-yl)phenyl)ethyl)pyrrolidine-2-carboxamide [Compound 200]", "values": [{"measurement": "IC50", "setting": "AGS; [1]", "result": 4.6, "unit": "nM"}, {"measurement": "IC50", "setting": "SW620; [2]", "result": 20, "unit": "nM"}]}, {"compound": "(2S,4R)-1-((S)-2-(4-(5-(3-(4-((1-((7-(8-ethyl-7-fluoro-3-hydroxynaphthalen-1-yl)-8-fluoro-4-((R )-3-hydroxy-3-methylpiperidin-1-yl)pyrido[4,3-d]pyrimidin-2-yl)oxy)methyl)cyclopropyl)methy l)piperazin-1-yl)azetidin-1-yl)pyrazin-2-yl)-1H-1,2,3-triazol-1-yl)-3-methylbutanoyl)-4-hydroxy -N-((R)-2-hydroxy-1-(4-(4-methylthiazol-5-yl)phenyl)ethyl)pyrrolidine-2-carboxamide [Compound 192]", "values": [{"measurement": "IC50", "setting": "AGS; [1]", "result": 3.2, "unit": "nM"}, {"measurement": "IC50", "setting": "SW620; [2]", "result": 17, "unit": "nM"}]}, {"compound": "(2S,4R)-1-((2S)-2-(4-(5-(1-(4-((1-(((7-(8-ethyl-7-fluoro-3-hydroxynaphthalen-1-yl)-8-fluoro-4-(( R)-3-hydroxy-3-methylpiperidin-1-yl)pyrido[4,3-d]pyrimidin-2-yl)oxy)methyl)cyclopropyl)meth yl)piperidin-1-yl)ethyl)piperidin-2-yl)-1H-1,2,3-triazol-1-yl)-3-methylbutanoyl)-4-hydroxy-N-(( S)-1-(4-(4-methylthiazol-5-yl)phenyl)ethyl)pyrrolidine-2-carboxamide [Compound 194]", "values": [{"measurement": "IC50", "setting": "AGS", "result": 5.5, "unit": "nM"}, {"measurement": "IC50", "setting": "SW620", "result": 26, "unit": "nM"}]}, {"compound": "CCc1c(F)ccc2cc(O)cc(-c3ncc4c(N5CCCC(C)(O)C5)nc(OCC5(CN6CCN(Cc7cc(-c8cn([C@H](C(=O)N9C[C@H](O)C[C@H]9C(=O)N[C@@H](C)c9ccc(-c%10scnc%10C)cc9)C(C)C)nn8)n(C)n7)CC6)CC5)nc4c3F)c12", "note": "(some centres unmarked) [Compound 202]", "values": [{"measurement": "IC50", "setting": "AGS; [1]", "result": 15, "unit": "nM"}, {"measurement": "IC50", "setting": "SW620; [2]", "result": 54, "unit": "nM"}]}, {"compound": "CCc1c(F)ccc2cc(O)cc(-c3ncc4c(N5CCC[C@@](C)(O)C5)nc(OCC5(CN6CCC(N7CCN(c8cnc(-c9cn([C@H](C(=O)N%10C[C@H](O)C[C@H]%10C(=O)N[C@@H](C)c%10ccc(-c%11scnc%11C)cc%10)C(C)C)nn9)cn8)CC7)CC6)CC5)nc4c3F)c12", "note": "[Compound 196, (2S,4R)-1-((S)-2-(4-(5-(4-(1-(((7-(8-ethyl-7-fluoro-3-hydroxynaphthalen-1-yl)-8-fluoro-4-(((R)-3-hydroxy-3-methylpiperidin-1-yl)pyrido[4,3-d]pyrimidin-2-yl)oxy)methyl)cyclopropyl)methyl)piperidin-4-yl)piperazin-1-yl)pyrazin-2-yl)-1H-1,2,3-triazol-1-yl)-3-methylbutanoyl)-4-hydroxy-N-(((S)-1-(4-(4-methylthiazol-5-yl)phenyl)ethyl)pyrrolidine-2-carboxamide]", "values": [{"measurement": "IC50", "setting": "AGS; [1]", "result": 4, "unit": "nM"}, {"measurement": "IC50", "setting": "SW620; [2]", "result": 15, "unit": "nM"}]}, {"compound": "CCc1c(F)ccc2cc(O)cc(-c3ncc4c(N5CCC[C@@](C)(O)C5)nc(OCC5(CN6CCN(CCOc7cc([C@H](C(=O)N8C[C@H](O)C[C@H]8C(=O)N[C@@H](C)c8ccc(-c9scnc9C)cc8)C(C)C)on7)CC6)CC5)nc4c3F)c12", "note": "[Compound 175]", "values": [{"measurement": "IC50", "setting": "AGS; [1]", "result": 26, "unit": "nM"}, {"measurement": "IC50", "setting": "SW620; [2]", "result": 70, "unit": "nM"}]}, {"compound": "CCc1c(F)ccc2cc(O)cc(-c3ncc4c(N5CCC[C@@](C)(O)C5)nc(OCC5(CN6CCN(C(=O)c7cnc(-c8cn([C@H](C(=O)N9C[C@H](O)C[C@H]9C(=O)N[C@@H](C)c9ccc(-c%10scnc%10C)cc9)C(C)C)nn8)cn7)CC6)CC5)nc4c3F)c12", "note": "[Compound 173]", "values": [{"measurement": "IC50", "setting": "AGS; [1]", "result": 6, "unit": "nM"}, {"measurement": "IC50", "setting": "SW620; [2]", "result": 35, "unit": "nM"}]}, {"compound": "CCc1c(F)ccc2cc(O)cc(-c3ncc4c(N5CCC[C@@](C)(O)C5)nc(OCC5(CN6CCC(c7cc([C@H](C(=O)N8C[C@H](O)C[C@H]8C(=O)N[C@@H](C)c8ccc(-c9scnc9C)cc8)C(C)C)on7)CC6)CC5)nc4c3F)c12", "note": "[Compound 147]", "values": [{"measurement": "IC50", "setting": "AGS", "result": 16, "unit": "nM"}, {"measurement": "DC50", "setting": "KRAS G12D", "result": 24, "unit": "nM"}, {"measurement": "Dmax (%)", "setting": "KRAS G12D", "result": 95, "unit": "%"}]}, {"compound": "C=C1CN2[C@H](COC(=O)N3CCC4(CC3)CC(C(=O)N[C@H](C(=O)N3C[C@H](O)C[C@H]3C(=O)N[C@@H](C)c3ccc(-c5scnc5C)cc3)C(C)(C)C)C4)CC[C@@]2(COc2nc(N3CCC[C@@](C)(O)C3)c3cnc(-c4cc(O)cc5ccc(F)c(CC)c45)c(F)c3n2)C1", "note": "[Compound 140]", "values": [{"measurement": "IC50", "setting": "AGS", "result": 28, "unit": "nM"}, {"measurement": "IC50", "setting": "SW620", "result": 167, "unit": "nM"}]}]}
